Measurements: patent US6488924B1, “Vitamin K adduct, particularly suitable as vitamin supplement for feeds” (Luigi Stoppani S.p.A., priority 1999, dated 2002)

Experiments:
[1] = Thermal stability in controlled humidity (dispersed in aluminum silicate); format: physicochemical
Protocol: A method described in the literature is used to compare the stability of Kavist with respect to MSB. According to this method, the products, as accurately dispersed in aluminum silicate (K.F. humidity around 11%) at the level of 1.5% by weight, are kept at 55° C. for 3 days in order to evaluate their menadione content before and after the treatment. The menadione titers of the adduct according to the invention and the percentage of menadione left unchanged before and after the treatment are listed hereafter.

[2] = Thermal stability in air-circulation stove; format: physicochemical; conditions: absence of humidity
[3] = Release of menadione in aqueous medium; format: physicochemical; conditions: demineralized water, municipal drinking water, seawater
Protocol: The menadione release capacity of the adduct according to the invention and of MSB in three different types of water (demineralized water, municipal drinking water, and seawater) is evaluated.
The following table lists the milligrams/liter of menadione found in the solution with respect to the total menadione of the polymeric adduct added as a suspension equal to 1 g/l ([…] menadione on 1 g of dry adduct): […]

[4] = Stability under pressure (press on disk of finely ground powder); format: physicochemical; conditions: 30 minutes
[5] = Characteristic parameters and comparative tests adduct vs MSB: solubility; format: physicochemical; conditions: at 25° C.
[6] = pH of the medium; cited from earlier work
[7] = Solubility in water (saturated solution in demineralized water); format: physicochemical; conditions: ambient temperature, saturated solution in presence of a precipitate
[8] = Stability in extruded feed (fish farm feed); format: physicochemical; conditions: for menadione in feed, sampling point End point: after extrusion, drying and addition of fat; for menadione in feed, sampling point Mixer: after mixing, before extrusion
Protocol: Two preparations of vitamin supplement of approximately 2500 kg of feed were prepared for each vitamin K source. The vitamin K supplements were mixed in with the feed in an industrial mixer, extruded in a continuous extruder with the addition of live steam, dried and added with fat.

| SMILES | Final menadione/initial menadione ([1]; 55° C. for 3 days in aluminum silicate (humidity around 11%)) | Final menadione content ([1]; after 55° C. for 3 days in aluminum silicate (humidity around 11%)) | Initial menadione content ([1]; before treatment, dispersed in aluminum silicate (humidity around 11%) at 1.5% by weight) | Men found/initial Men ([2]; 120° for 24 hours) | Color ([2]; after 120° for 24 hours) | menadione release in water (in words) [3] | percentage of menadione left unchanged ([4]; 1 atm, 25° C.) | percentage of menadione left unchanged ([4]; 1 atm, 120° C.) | percentage of menadione left unchanged ([4]; 25 atm, 25° C.) | percentage of menadione left unchanged ([4]; 25 atm, 120° C.) | percentage of menadione left unchanged ([4]; 5000 atm, 25° C.) | percentage of menadione left unchanged ([4]; 5000 atm, 120° C.) | water solubility [5] | pH at which isomerization into poorly effective product becomes complete [6] | Menadione concentration mg/l saturated solution [7] | menadione in feed, sampling point End point ([8]; 1st preparation) | menadione in feed, sampling point Mixer ([8]; 1st preparation) | menadione in feed, sampling point End point ([8]; 2nd preparation) | menadione in feed, sampling point Mixer ([8]; 2nd preparation) |
| --- | --- | --- | --- | --- | --- | --- | --- | --- | --- | --- | --- | --- | --- | --- | --- | --- | --- | --- | --- |
| CC1(S(=O)(=O)[O-])CC(=O)c2ccccc2C1=O.[Na+] (centres unmarked) [MSB, menadione sodium bisulfite] | 15.5% | 0.24% | 1.52% | 0% | Purple | substantially instantaneous release | 100% | 20% | 100% | 15% | 80% | 10% | 50 g/100 ml at 25 °C | approximately 8.5 | Higher than 20 × 10^4 mg mg/l | 21.0 mg/kg | 90.9 mg/kg | 16.1 mg/kg | 87.6 mg/kg |
| CC1(S(=O)(=O)O)CC(=O)c2ccccc2C1=O.NC(=O)c1cccnc1 (centres unmarked) [MNB, menadione nicotinamide bisulfite] |  |  |  |  |  |  |  |  |  |  |  |  |  |  |  | 22.7 mg/kg | 86.1 mg/kg | 18.1 mg/kg | 86.3 mg/kg |
